Test results as given in ChEMBL document CHEMBL4507279, “Data for DCP probe BI-9627” (2021).

Experiments:
[1] = molecular target: Sodium/hydrogen exchanger 3 (Homo sapiens, UniProt P48764); test: pHi change assay with SLC9A3
[2] = tested on: Tyrosine-protein kinase ABL1 (Homo sapiens), P00519 [H396P]; settings: Compound concentration 1000.0 nM
[3] = molecular target: Tyrosine-protein kinase ABL2 (Homo sapiens) (UniProt P42684); settings: Compound concentration 1000.0 nM
[4] = molecular target: Activin receptor type-2B (Homo sapiens) (UniProt Q13705); settings: Compound concentration 1000.0 nM
[5] = molecular target: ALK tyrosine kinase receptor (Homo sapiens) (UniProt Q9UM73); settings: Compound concentration 1000.0 nM
[6] = molecular target: Protein-tyrosine kinase 6 (Homo sapiens) (UniProt Q13882); settings: Compound concentration 1000.0 nM
[7] = molecular target: Mitotic checkpoint serine/threonine-protein kinase BUB1 (Homo sapiens) (UniProt O43683); settings: Compound concentration 1000.0 nM
[8] = molecular target: Calcium/calmodulin-dependent protein kinase type 1D (Homo sapiens) (UniProt Q8IU85); settings: Compound concentration 1000.0 nM
[9] = molecular target: Calcium/calmodulin-dependent protein kinase type 1G (Homo sapiens) (UniProt Q96NX5); settings: Compound concentration 1000.0 nM
[10] = molecular target: Calcium/calmodulin-dependent protein kinase type II subunit alpha (Homo sapiens) (UniProt Q9UQM7); settings: Compound concentration 1000.0 nM
[11] = molecular target: Calcium/calmodulin-dependent protein kinase type II subunit gamma (Homo sapiens) (UniProt Q13555); settings: Compound concentration 1000.0 nM
Sequence of Calcium/calmodulin-dependent protein kinase type II subunit gamma (Homo sapiens) (Q13555 whole entry): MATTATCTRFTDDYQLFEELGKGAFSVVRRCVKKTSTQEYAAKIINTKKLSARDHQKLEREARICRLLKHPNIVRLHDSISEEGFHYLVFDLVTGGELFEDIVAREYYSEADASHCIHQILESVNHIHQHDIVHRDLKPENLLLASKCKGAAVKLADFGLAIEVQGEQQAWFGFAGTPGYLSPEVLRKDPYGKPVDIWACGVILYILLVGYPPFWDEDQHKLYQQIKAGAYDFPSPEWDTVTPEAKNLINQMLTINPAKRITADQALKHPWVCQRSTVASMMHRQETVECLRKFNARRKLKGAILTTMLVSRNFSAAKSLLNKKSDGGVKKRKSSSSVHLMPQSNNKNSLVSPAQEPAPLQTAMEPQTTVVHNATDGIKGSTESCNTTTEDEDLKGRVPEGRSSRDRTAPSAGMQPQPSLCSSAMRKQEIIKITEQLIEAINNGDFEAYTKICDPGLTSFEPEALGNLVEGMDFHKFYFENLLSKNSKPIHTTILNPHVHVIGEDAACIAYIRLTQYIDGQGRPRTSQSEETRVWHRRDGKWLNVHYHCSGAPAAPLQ

[12] = molecular target: Calcium/calmodulin-dependent protein kinase kinase 1 (Homo sapiens) (UniProt Q8N5S9); settings: Compound concentration 1000.0 nM
[13] = molecular target: Dual specificity protein kinase CLK1 (Homo sapiens) (UniProt P49759); settings: Compound concentration 1000.0 nM
[14] = molecular target: Dual specificity protein kinase CLK2 (Homo sapiens) (UniProt P49760); settings: Compound concentration 1000.0 nM
[15] = molecular target: Dual specificity tyrosine-phosphorylation-regulated kinase 1B (Homo sapiens) (UniProt Q9Y463); settings: Compound concentration 1000.0 nM
[16] = molecular target: Dual specificity tyrosine-phosphorylation-regulated kinase 2 (Homo sapiens) (UniProt Q92630); settings: Compound concentration 1000.0 nM
[17] = tested on: Epidermal growth factor receptor (Homo sapiens), P00533 [G719S]; settings: Compound concentration 1000.0 nM
[18] = tested on: Epidermal growth factor receptor (Homo sapiens), P00533 [UNDEFINED MUTATION]; settings: Compound concentration 1000.0 nM
[19] = molecular target: Eukaryotic translation initiation factor 2-alpha kinase 1 (Homo sapiens) (UniProt Q9BQI3); settings: Compound concentration 1000.0 nM
[20] = molecular target: Ephrin type-B receptor 2 (Homo sapiens) (UniProt P29323); settings: Compound concentration 1000.0 nM
Sequence of Ephrin type-B receptor 2 (Homo sapiens) (P29323 whole entry): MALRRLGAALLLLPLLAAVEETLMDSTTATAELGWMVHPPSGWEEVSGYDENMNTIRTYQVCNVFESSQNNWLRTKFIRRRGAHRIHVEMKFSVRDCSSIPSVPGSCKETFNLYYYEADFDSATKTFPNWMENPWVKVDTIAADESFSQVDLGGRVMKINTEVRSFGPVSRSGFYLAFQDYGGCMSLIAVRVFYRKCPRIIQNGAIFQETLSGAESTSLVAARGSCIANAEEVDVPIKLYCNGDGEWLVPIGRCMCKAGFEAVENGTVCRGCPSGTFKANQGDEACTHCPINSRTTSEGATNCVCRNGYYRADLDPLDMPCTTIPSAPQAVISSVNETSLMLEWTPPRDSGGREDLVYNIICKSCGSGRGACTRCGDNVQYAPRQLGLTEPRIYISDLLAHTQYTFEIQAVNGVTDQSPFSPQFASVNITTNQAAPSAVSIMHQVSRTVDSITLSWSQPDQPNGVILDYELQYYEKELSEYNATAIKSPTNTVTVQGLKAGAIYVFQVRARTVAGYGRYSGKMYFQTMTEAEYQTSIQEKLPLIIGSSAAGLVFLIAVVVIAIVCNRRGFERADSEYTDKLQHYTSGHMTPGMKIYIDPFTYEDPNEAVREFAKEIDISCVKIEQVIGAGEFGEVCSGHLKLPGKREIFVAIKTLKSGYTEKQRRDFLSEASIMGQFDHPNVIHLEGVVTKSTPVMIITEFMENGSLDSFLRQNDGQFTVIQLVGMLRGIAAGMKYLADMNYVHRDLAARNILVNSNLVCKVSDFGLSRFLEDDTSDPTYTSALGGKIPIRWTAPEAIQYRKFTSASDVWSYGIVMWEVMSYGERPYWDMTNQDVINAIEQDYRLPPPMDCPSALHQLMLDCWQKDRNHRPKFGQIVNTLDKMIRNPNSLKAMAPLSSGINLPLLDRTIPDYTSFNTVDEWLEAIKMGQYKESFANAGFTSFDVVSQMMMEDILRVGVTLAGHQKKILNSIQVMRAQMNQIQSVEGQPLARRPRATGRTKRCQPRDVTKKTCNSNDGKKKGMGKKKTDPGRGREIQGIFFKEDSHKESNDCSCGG

[21] = molecular target: Receptor tyrosine-protein kinase erbB-3 (Homo sapiens) (UniProt P21860); settings: Compound concentration 1000.0 nM
[22] = molecular target: Fibroblast growth factor receptor 2 (Homo sapiens) (UniProt P21802); settings: Compound concentration 1000.0 nM
[23] = molecular target: Homeodomain-interacting protein kinase 2 (Homo sapiens) (UniProt Q9H2X6); settings: Compound concentration 1000.0 nM
[24] = molecular target: Inhibitor of nuclear factor kappa-B kinase subunit beta (Homo sapiens) (UniProt O14920); settings: Compound concentration 1000.0 nM
Sequence of Inhibitor of nuclear factor kappa-B kinase subunit beta (Homo sapiens) (O14920 whole entry): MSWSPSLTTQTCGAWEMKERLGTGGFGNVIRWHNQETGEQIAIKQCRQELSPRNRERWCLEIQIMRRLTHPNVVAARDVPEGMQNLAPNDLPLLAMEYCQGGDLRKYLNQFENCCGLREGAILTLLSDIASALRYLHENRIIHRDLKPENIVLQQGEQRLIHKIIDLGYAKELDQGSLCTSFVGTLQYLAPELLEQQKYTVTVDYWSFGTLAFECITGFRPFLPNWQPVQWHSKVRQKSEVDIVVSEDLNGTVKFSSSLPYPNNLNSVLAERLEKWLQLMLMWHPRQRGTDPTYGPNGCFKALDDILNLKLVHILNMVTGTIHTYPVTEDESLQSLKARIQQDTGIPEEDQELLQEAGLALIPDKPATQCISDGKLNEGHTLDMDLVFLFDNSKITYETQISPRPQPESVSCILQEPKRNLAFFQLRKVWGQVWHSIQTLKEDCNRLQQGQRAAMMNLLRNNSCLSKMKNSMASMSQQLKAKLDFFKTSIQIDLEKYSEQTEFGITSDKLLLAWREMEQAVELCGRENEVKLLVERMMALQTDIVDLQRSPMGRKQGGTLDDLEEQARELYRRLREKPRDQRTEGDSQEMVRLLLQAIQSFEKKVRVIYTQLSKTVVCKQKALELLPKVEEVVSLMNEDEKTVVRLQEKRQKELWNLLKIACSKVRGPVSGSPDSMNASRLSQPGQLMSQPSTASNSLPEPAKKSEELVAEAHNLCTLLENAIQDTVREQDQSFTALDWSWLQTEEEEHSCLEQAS

[25] = molecular target: Interleukin-1 receptor-associated kinase 1 (Homo sapiens) (UniProt P51617); settings: Compound concentration 1000.0 nM
[26] = molecular target: Leukocyte tyrosine kinase receptor (Homo sapiens) (UniProt P29376); settings: Compound concentration 1000.0 nM
[27] = molecular target: Tyrosine-protein kinase Lyn (Homo sapiens) (UniProt P07948); settings: Compound concentration 1000.0 nM
Sequence of Tyrosine-protein kinase Lyn (Homo sapiens) (P07948 2-512 limits assumed): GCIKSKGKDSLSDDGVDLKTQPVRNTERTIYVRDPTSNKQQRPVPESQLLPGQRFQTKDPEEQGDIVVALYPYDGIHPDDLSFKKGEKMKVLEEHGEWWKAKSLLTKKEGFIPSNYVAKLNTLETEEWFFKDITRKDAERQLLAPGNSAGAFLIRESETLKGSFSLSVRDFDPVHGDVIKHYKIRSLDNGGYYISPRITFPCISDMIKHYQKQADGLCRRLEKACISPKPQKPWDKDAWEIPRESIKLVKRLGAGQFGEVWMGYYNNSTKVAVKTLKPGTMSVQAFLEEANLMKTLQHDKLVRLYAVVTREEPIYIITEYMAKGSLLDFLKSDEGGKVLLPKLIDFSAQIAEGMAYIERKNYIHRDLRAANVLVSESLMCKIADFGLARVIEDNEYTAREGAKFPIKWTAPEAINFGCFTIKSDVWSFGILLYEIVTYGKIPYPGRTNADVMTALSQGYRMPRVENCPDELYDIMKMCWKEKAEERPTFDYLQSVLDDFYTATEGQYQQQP

[28] = molecular target: MAP kinase-interacting serine/threonine-protein kinase 2 (Homo sapiens) (UniProt Q9HBH9); settings: Compound concentration 1000.0 nM
[29] = molecular target: Myosin light chain kinase 2, skeletal/cardiac muscle (Homo sapiens) (UniProt Q9H1R3); settings: Compound concentration 1000.0 nM
Sequence of Myosin light chain kinase 2, skeletal/cardiac muscle (Homo sapiens) (Q9H1R3 whole entry): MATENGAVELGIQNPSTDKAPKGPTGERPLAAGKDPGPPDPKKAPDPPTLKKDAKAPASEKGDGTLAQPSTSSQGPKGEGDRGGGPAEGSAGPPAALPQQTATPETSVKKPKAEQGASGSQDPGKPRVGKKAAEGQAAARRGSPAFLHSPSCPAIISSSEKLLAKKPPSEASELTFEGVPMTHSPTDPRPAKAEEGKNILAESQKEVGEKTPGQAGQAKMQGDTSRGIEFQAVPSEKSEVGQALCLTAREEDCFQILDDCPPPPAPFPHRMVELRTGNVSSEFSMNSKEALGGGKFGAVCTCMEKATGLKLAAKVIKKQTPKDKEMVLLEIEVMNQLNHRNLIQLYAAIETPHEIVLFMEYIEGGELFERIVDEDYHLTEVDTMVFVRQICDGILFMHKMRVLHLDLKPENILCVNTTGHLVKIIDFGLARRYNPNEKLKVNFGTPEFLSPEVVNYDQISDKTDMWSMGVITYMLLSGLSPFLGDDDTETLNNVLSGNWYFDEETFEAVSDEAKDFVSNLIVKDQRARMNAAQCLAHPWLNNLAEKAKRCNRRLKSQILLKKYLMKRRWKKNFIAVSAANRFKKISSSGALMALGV

[30] = molecular target: Myosin light chain kinase family member 4 (Homo sapiens) (UniProt Q86YV6); settings: Compound concentration 1000.0 nM
[31] = molecular target: Mitogen-activated protein kinase 14 (Homo sapiens) (UniProt Q16539); settings: Compound concentration 1000.0 nM
Sequence of Mitogen-activated protein kinase 14 (Homo sapiens) (Q16539 whole entry): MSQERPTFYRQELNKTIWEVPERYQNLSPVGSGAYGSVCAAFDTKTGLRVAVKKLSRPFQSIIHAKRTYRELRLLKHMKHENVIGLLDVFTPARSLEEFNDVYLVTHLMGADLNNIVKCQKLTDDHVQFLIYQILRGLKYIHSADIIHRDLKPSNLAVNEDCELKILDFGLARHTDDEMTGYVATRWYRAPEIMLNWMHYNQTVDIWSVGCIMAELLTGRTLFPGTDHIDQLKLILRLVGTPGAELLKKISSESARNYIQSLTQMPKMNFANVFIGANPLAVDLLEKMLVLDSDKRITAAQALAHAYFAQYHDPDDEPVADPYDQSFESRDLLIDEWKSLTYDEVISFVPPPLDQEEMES

[32] = molecular target: Platelet-derived growth factor receptor alpha (Homo sapiens) (UniProt P16234); settings: Compound concentration 1000.0 nM
[33] = molecular target: Cyclin-dependent kinase 14 (Homo sapiens) (UniProt O94921); settings: Compound concentration 1000.0 nM
[34] = tested on: Phosphatidylinositol 4,5-bisphosphate 3-kinase catalytic subunit alpha isoform (Homo sapiens), P42336 [H1047L]; settings: Compound concentration 1000.0 nM
[35] = molecular target: Phosphatidylinositol 4,5-bisphosphate 3-kinase catalytic subunit delta isoform (Homo sapiens) (UniProt O00329); settings: Compound concentration 1000.0 nM
[36] = molecular target: Serine/threonine-protein kinase pim-1 (Homo sapiens) (UniProt P11309); settings: Compound concentration 1000.0 nM
Sequence of Serine/threonine-protein kinase pim-1 (Homo sapiens) (P11309 whole entry, looked up): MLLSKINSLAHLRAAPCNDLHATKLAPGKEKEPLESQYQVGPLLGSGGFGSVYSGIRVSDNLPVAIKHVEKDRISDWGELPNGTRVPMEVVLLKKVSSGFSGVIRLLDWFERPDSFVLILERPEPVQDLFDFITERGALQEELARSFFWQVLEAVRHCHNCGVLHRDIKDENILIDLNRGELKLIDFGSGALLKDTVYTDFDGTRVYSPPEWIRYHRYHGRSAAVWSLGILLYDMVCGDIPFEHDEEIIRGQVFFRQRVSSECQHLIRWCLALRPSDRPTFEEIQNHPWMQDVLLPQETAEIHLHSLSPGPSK

[37] = molecular target: Serine/threonine-protein kinase D1 (Homo sapiens) (UniProt Q15139); settings: Compound concentration 1000.0 nM
[38] = molecular target: Serine/threonine-protein kinase D2 (Homo sapiens) (UniProt Q9BZL6); settings: Compound concentration 1000.0 nM
Sequence of Serine/threonine-protein kinase D2 (Homo sapiens) (Q9BZL6 whole entry): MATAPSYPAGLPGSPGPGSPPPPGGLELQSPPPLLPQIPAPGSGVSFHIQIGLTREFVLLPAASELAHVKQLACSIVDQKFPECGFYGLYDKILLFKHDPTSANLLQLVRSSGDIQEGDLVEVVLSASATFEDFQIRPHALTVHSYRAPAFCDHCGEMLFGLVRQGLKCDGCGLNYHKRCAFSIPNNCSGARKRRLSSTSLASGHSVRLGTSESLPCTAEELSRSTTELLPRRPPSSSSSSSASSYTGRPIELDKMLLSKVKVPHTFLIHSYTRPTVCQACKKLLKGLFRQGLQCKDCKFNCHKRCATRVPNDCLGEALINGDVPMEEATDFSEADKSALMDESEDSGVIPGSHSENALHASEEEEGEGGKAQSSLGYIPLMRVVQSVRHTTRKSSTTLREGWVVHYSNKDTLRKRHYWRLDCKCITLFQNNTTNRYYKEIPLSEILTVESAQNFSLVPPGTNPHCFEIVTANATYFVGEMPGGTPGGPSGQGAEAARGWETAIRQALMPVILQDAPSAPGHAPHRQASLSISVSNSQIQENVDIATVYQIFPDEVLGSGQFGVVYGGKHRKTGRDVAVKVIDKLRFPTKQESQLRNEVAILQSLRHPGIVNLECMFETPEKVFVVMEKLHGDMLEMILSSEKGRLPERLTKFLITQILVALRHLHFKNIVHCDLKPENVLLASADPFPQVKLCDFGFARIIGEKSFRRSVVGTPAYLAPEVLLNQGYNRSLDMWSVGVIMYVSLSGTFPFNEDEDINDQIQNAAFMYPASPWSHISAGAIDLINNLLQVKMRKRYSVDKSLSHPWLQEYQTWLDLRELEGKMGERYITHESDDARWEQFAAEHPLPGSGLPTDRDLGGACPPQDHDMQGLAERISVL

[39] = molecular target: Proto-oncogene tyrosine-protein kinase receptor Ret (Homo sapiens) (UniProt P07949); settings: Compound concentration 1000.0 nM
[40] = molecular target: Ribosomal protein S6 kinase alpha-5 (Homo sapiens) (UniProt O75582); settings: Compound concentration 1000.0 nM
[41] = molecular target: SRSF protein kinase 3 (Homo sapiens) (UniProt Q9UPE1); settings: Compound concentration 1000.0 nM
[42] = molecular target: Serine/threonine-protein kinase TAO3 (Homo sapiens) (UniProt Q9H2K8); settings: Compound concentration 1000.0 nM
[43] = molecular target: Wee1-like protein kinase 2 (Homo sapiens) (UniProt P0C1S8); settings: Compound concentration 1000.0 nM
[44] = molecular target: Alpha-2C adrenergic receptor (Homo sapiens) (UniProt P18825); settings: Compound concentration 10.0 uM
[45] = molecular target: Beta-3 adrenergic receptor (Homo sapiens) (UniProt P13945); settings: Compound concentration 10.0 uM

Compound: CC(=O)N1CCC(c2ccc(C(=O)NC(=N)N)cc2C(F)(F)F)CC1 [BI 9627]
- IC50 [1]: > 16 µM (not active)
- residual activity [2]: 60%
- residual activity [3]: 100%
- residual activity [4]: 100%
- residual activity [5]: 93%
- residual activity [6]: 100%
- residual activity [7]: 85%
- residual activity [8]: 95%
- residual activity [9]: 100%
- residual activity [10]: 100%
- residual activity [11]: 100%
- residual activity [12]: 100%
- residual activity [13]: 100%
- residual activity [14]: 100%
- residual activity [15]: 45%
- residual activity [16]: 89%
- residual activity [17]: 96%
- residual activity [18]: 100%
- residual activity [19]: 100%
- residual activity [20]: 100%
- residual activity [21]: 98%
- residual activity [22]: 100%
- residual activity [23]: 100%
- residual activity [24]: 100%
- residual activity [25]: 100%
- residual activity [26]: 100%
- residual activity [27]: 100%
- residual activity [28]: 100%
- residual activity [29]: 85%
- residual activity [30]: 100%
- residual activity [31]: 100%
- residual activity [32]: 100%
- residual activity [33]: 100%
- residual activity [34]: 100%
- residual activity [35]: 34%
- residual activity [36]: 100%
- residual activity [37]: 100%
- residual activity [38]: 100%
- residual activity [39]: 100%
- residual activity [40]: 100%
- residual activity [41]: 100%
- residual activity [42]: 86%
- residual activity [43]: 100%
- inhibition [44]: 9.12%
- inhibition [45]: 5.47%

Compound: CC(=O)N1CCC(c2ccc(C(=O)NC3=NCCN3)cc2C(F)(F)F)CC1 [BI 0054]
- IC50 [1]: > 10 µM (not active)
- residual activity [2]: 100%
- residual activity [3]: 100%
- residual activity [4]: 100%
- residual activity [5]: 89%
- residual activity [6]: 88%
- residual activity [7]: 100%
- residual activity [8]: 100%
- residual activity [9]: 100%
- residual activity [10]: 94%
- residual activity [11]: 100%
- residual activity [12]: 100%
- residual activity [13]: 100%
- residual activity [14]: 91%
- residual activity [15]: 37%
- residual activity [16]: 93%
- residual activity [17]: 100%
- residual activity [18]: 89%
- residual activity [19]: 83%
- residual activity [20]: 82%
- residual activity [21]: 94%
- residual activity [22]: 86%
- residual activity [23]: 100%
- residual activity [24]: 85%
- residual activity [25]: 78%
- residual activity [26]: 100%
- residual activity [27]: 94%
- residual activity [28]: 100%
- residual activity [29]: 100%
- residual activity [30]: 100%
- residual activity [31]: 100%
- residual activity [32]: 92%
- residual activity [33]: 100%
- residual activity [34]: 100%
- residual activity [35]: 100%
- residual activity [36]: 100%
- residual activity [37]: 100%
- residual activity [38]: 100%
- residual activity [39]: 100%
- residual activity [40]: 100%
- residual activity [41]: 100%
- residual activity [42]: 87%
- residual activity [43]: 100%
- inhibition [44]: 16.3%
- inhibition [45]: 8.52%
